Our source for the T/C values is PubChem BioAssay AID214 (DTP/NCI, 2004).

Where “and” joins values, the source holds several entries; their conditions need not be identical. Identical values can stand only once. Results filed as inconclusive are left out.

The assay relates to B6C3F1 mice, colon carcinoma 38 s.c., T/C. The assay can be described thus: NCI In Vivo Anticancer Drug Screen. Data for tumor model Colon Carcinoma 38 (subcutaneous) in B6C3F1 mice. The settings on record: endpoint: median tumor weight (est.), higher = larger tumour. The method, then:
The antitumor activity of compounds was measured in mice bearing transplantable tumors. Survival or tumor size were measured and the results are expressed as the measurement made in the treated group (T) divided by the measurement made in the vehicle treated control group (C). The tumor model used in this assay is Colon Carcinoma 38 (subcutaneous) in B6C3F1 mice

Setting [1] is: dose: 50.0 mg/kg/injection, schedule: Q07DX002 (ip), vehicle: suspension in saline.
The mark [2] stands for this setting: dose: 100.0 mg/kg/injection, schedule: Q07DX002 (ip), vehicle: suspension in saline.
Setting [3] is: dose: 300.0 mg/kg/injection, schedule: Q07DX002 (ip), vehicle: suspension in saline.
The mark [4] stands for this setting: dose: 50.0 mg/kg/injection, schedule: Q07DX002 (ip), vehicle: Klucel (hydroxypropylcellulose) (HPC).
The mark [5] stands for this setting: dose: 6.25 mg/kg/injection, schedule: Q07DX002 (ip), vehicle: saline.
Where [6] appears, read: dose: 12.5 mg/kg/injection, schedule: Q07DX002 (ip), vehicle: saline.
Where [7] appears, read: dose: 25.0 mg/kg/injection, schedule: Q07DX002 (ip), vehicle: saline.
Where [8] appears, read: dose: 50.0 mg/kg/injection, schedule: Q07DX002 (ip), vehicle: saline.
Setting [9] is: dose: 100.0 mg/kg/injection, schedule: Q07DX002 (ip), vehicle: Klucel (hydroxypropylcellulose) (HPC).
The mark [10] stands for this setting: dose: 200.0 mg/kg/injection, schedule: Q07DX002 (ip), vehicle: Klucel (hydroxypropylcellulose) (HPC).
The mark [11] stands for this setting: dose: 400.0 mg/kg/injection, schedule: Q07DX002 (ip), vehicle: Klucel (hydroxypropylcellulose) (HPC).
Where [12] appears, read: dose: 50.0 mg/kg/injection, schedule: Q07DX002 (ip), vehicle: saline with Tween-80.
[13] abbreviates: dose: 100.0 mg/kg/injection, schedule: Q07DX002 (ip), vehicle: saline with Tween-80.
The mark [14] stands for this setting: dose: 200.0 mg/kg/injection, schedule: Q07DX002 (ip), vehicle: saline with Tween-80.

Regarding `O=C(Cc1cccc2c(=O)cc(-c3ccccc3)oc12)OCCN1CCOCC1`, the T/C under setting [1] is 70 % of control; the T/C under setting [2] was 49 % of control; the T/C (dose: 200.0 mg/kg/injection, schedule: Q07DX002 (ip), vehicle: suspension in saline) was 68 % of control; the T/C under setting [3] was 17 % of control.
With `Cc1c(N)nc(C(CC(N)=O)NCC(N)C(N)=O)nc1C(=O)NC(C(=O)NC(C)C(O)CC(=O)NC(C(=O)NC(OC1OC(C)C(N)C(O)C1O)C(O)c1nc(-c2nc(C(=O)NCCCC(N)CC(=O)NCCCNCCCCN)cs2)cs1)C(C)O)C(OC1OC(CO)C(O)C(O)C1OC1OC(CO)C(O)C(OC(N)=O)C1O)c1cnc[nH]1` (configuration not stated), the T/C (dose: 4.0 mg/kg/injection, schedule: Q07DX002 (ip), vehicle: saline) was 36 % of control; the T/C (dose: 8.0 mg/kg/injection, schedule: Q07DX002 (ip), vehicle: saline) is 15 % of control; the T/C (dose: 16.0 mg/kg/injection, schedule: Q07DX002 (ip), vehicle: saline) is 8 % of control; the T/C (dose: 32.0 mg/kg/injection, schedule: Q07DX002 (ip), vehicle: saline) was 1 % of control.
Regarding `COC12C(COC(=O)NCCO)C3=C(C(=O)C(C)=C(N)C3=O)N1CC1NC12` (configuration not stated), the T/C was 65 % of control (dose: 12.5 mg/kg/injection, schedule: Q07DX002 (ip), vehicle: Klucel (hydroxypropylcellulose) (HPC)); 50 % of control (dose: 25.0 mg/kg/injection, schedule: Q07DX002 (ip), vehicle: Klucel (hydroxypropylcellulose) (HPC)); 12 % of control under setting [4].
Turning to `O=C1N[C@@H]2C(=C[C@H](O)[C@@H](O)[C@H]2O)c2cc3c(c(O)c21)OCO3`, the T/C is 123 % of control (dose: 1.25 mg/kg/injection, schedule: Q07DX002 (ip), vehicle: saline with Tween-80); 60 % of control (dose: 5.0 mg/kg/injection, schedule: Q07DX002 (ip), vehicle: saline with Tween-80); 69 % of control (dose: 10.0 mg/kg/injection, schedule: Q07DX002 (ip), vehicle: saline with Tween-80); 43 % of control (dose: 20.0 mg/kg/injection, schedule: Q07DX002 (ip), vehicle: saline with Tween-80).
With `O=c1n(CC2CO2)c(=O)n(CC2CO2)n1CC1CO1` (configuration not stated), the T/C reads like this: under setting [5], 72 % of control; under setting [6], 67 % of control; under setting [7], 87 % of control; under setting [8], 31 % of control.
On to `NC1(C(=O)O)CCCC1`, for which the T/C (dose: 50.0 mg/kg/injection, schedule: Q07DX003 (ip), vehicle: saline) is 69 % of control; the T/C (dose: 100.0 mg/kg/injection, schedule: Q07DX003 (ip), vehicle: saline) was 81 % of control; the T/C (dose: 200.0 mg/kg/injection, schedule: Q07DX003 (ip), vehicle: saline) is 39 % of control.
For `NC(CSC(c1ccccc1)(c1ccccc1)c1ccccc1)C(=O)O` (configuration not stated), the T/C was 87 % of control (dose: 32.0 mg/kg/injection, schedule: Q07DX002 (ip), vehicle: saline with Tween-80); 46 % of control (dose: 32.0 mg/kg/injection, schedule: Q07DX003 (ip), vehicle: saline with Tween-80); 81 % of control (dose: 64.0 mg/kg/injection, schedule: Q07DX002 (ip), vehicle: saline with Tween-80); 105 % of control (dose: 64.0 mg/kg/injection, schedule: Q07DX003 (ip), vehicle: saline with Tween-80); 63 % of control (dose: 128.0 mg/kg/injection, schedule: Q07DX002 (ip), vehicle: saline with Tween-80); 72 % of control (dose: 128.0 mg/kg/injection, schedule: Q07DX003 (ip), vehicle: saline with Tween-80). For the same compound, the T/C (dose: 256.0 mg/kg/injection, schedule: Q07DX002 (ip), vehicle: saline with Tween-80) is 30 % of control; the T/C (dose: 256.0 mg/kg/injection, schedule: Q07DX003 (ip), vehicle: saline with Tween-80) was 45 % of control; the T/C (dose: 512.0 mg/kg/injection, schedule: Q07DX002 (ip), vehicle: saline with Tween-80) was 2 % of control.
In the case of `CSc1ncc2ncn(C3OC(CO)C(O)C3O)c2n1` (configuration not stated), the T/C is, setting by setting: under setting [9], 120 % of control; under setting [10], 78 % of control; under setting [11], 120 % of control.
For `NC(=O)CCC(N)C(=O)O` (configuration not stated), the T/C (dose: 75.0 mg/kg/injection, schedule: Q07DX002 (ip), vehicle: suspension in saline) is 113 % of control; the T/C (dose: 150.0 mg/kg/injection, schedule: Q07DX002 (ip), vehicle: suspension in saline) is 43 % of control; the T/C under setting [3] was 84 % of control; the T/C (dose: 600.0 mg/kg/injection, schedule: Q07DX002 (ip), vehicle: suspension in saline) is 101 % of control; the T/C (dose: 1200.0 mg/kg/injection, schedule: Q07DX002 (ip), vehicle: suspension in saline) is 91 % of control.
`O=P(O)(NCCCl)NCCCl`: the T/C is 52 % of control under setting [6], 100 % of control under setting [7] and 60 % of control under setting [8].
With `CS(=O)(=O)OCCCCOS(C)(=O)=O`, the T/C (dose: 50.0 mg/kg/injection, schedule: Q01DX006 (ip), vehicle: saline with Tween-80) is 16 % of control.
Turning to `CCC(C(=O)O)C(=O)O.[NH2-].[NH2-].[Pt+2]`, the T/C by setting is: under setting [1], 61 % of control; under setting [2], 45 % of control; (dose: 200.0 mg/kg/injection, schedule: Q07DX002 (ip), vehicle: saline) 62 % of control.
For `Cn1cc(C2NC(=O)c3ccccc3N2)c2ccccc21` (configuration not stated), the T/C under setting [4] was 46 % of control; the T/C under setting [9] is 244 % of control; the T/C under setting [10] is 42 % of control and 63 % of control; the T/C under setting [11] was 151 % of control; the T/C (dose: 1600.0 mg/kg/injection, schedule: Q07DX002 (ip), vehicle: Klucel (hydroxypropylcellulose) (HPC)) is 96 % of control.
Consider `ClCc1ccc2ccccc2n1`, for which the T/C reads like this: under setting [12], 93 % of control; under setting [13], 86 % of control; under setting [14], 89 % of control.
On to `BrCCC1(CCBr)CCCCC1`, for which the T/C runs as follows: (dose: 100.0 mg/kg/injection, schedule: Q07DX002 (ip), vehicle: water) 112 % of control; (dose: 200.0 mg/kg/injection, schedule: Q07DX002 (ip), vehicle: water) 177 % of control; (dose: 400.0 mg/kg/injection, schedule: Q07DX002 (ip), vehicle: water) 95 % of control; (dose: 800.0 mg/kg/injection, schedule: Q07DX002 (ip), vehicle: water) 117 % of control; (dose: 1600.0 mg/kg/injection, schedule: Q07DX002 (ip), vehicle: water) 90 % of control.
`COc1ccc2cc1Oc1ccc(cc1)C[C@H]1c3cc(c(OC)cc3CCN1C)Oc1c(OC)c(OC)cc3c1[C@H](C2)N(C)CC3`: the T/C was 102 % of control and 106 % of control (dose: 150.0 mg/kg/injection, schedule: Q07DX002 (ip), vehicle: saline with Tween-80); 57 % of control (dose: 300.0 mg/kg/injection, schedule: Q07DX002 (ip), vehicle: saline with Tween-80); 29 % of control (dose: 600.0 mg/kg/injection, schedule: Q07DX002 (ip), vehicle: saline with Tween-80).
As to `Cc1cn(C2CC(F)C(CO)O2)c(=O)[nH]c1=O` (configuration not stated), where the note is “dose: 1800.0 mg/kg/injection, schedule: Q07DX002 (ip), vehicle: saline”, the T/C is 103 % of control.
On to `Nc1nc(N)c2cc(S(=O)(=O)c3ccccc3)ccc2n1`, for which the T/C under setting [12] is 62 % of control; the T/C under setting [13] was 45 % of control; the T/C under setting [14] was 44 % of control; the T/C (dose: 400.0 mg/kg/injection, schedule: Q07DX002 (ip), vehicle: saline with Tween-80) is 24 % of control.
Regarding `C(=N/NC1=NCCN1)/c1c2ccccc2c(/C=N\NC2=NCCN2)c2ccccc12`, the T/C is 100 % of control under setting [5]; 55 % of control under setting [6]; 112 % of control under setting [7]; 81 % of control under setting [8]; 36 % of control (dose: 100.0 mg/kg/injection, schedule: Q07DX002 (ip), vehicle: saline).
